# According to patent US20250163104A1, “MACROCYCLIC IMMUNOMODULATORS” (priority 2021, published 2025):
# *1 amine or outer side, *2 acyl side, *3 side chain or, on linkers, in order; H or OH if unused. Where a SMILES comes first, the peptide text is derived from it. Bridges are numbered along the chain shown (N, C = ends). [ ]: non-standard residue; d: D form. The star is where a group is joined. ξ: configuration not given here. Phe(3-CH2NH2) = O=C([C@H](Cc1cccc(CN[*:3])c1)N[*:1])[*:2]; Phe(4-CF3) = N[C@@H](Cc1ccc(C(F)(F)F)cc1)C(=O)O; Phe(4-COOH) = N[C@@H](Cc1ccc(C(=O)O)cc1)C(=O)O; Phe(4-CH2NH2) = NCc1ccc(C[C@H](N)C(=O)O)cc1; X5 = O=C([C@H](Cc1ccc2ncccc2c1)N[*:1])[*:2]; Bip = N[C@@H](Cc1ccc(-c2ccccc2)cc1)C(=O)O; Phe(3-Me) = Cc1cccc(C[C@H](N)C(=O)O)c1; Val(3-OH) = CC(C)(O)[C@H](N)C(=O)O; Cha = N[C@@H](CC1CCCCC1)C(=O)O; Cit = NC(=O)NCCC[C@H](N)C(=O)O; Ile(3ξ) = CCC(C)[C@H](N)C(=O)O; Thr(3ξ) = CC(O)[C@H](N)C(=O)O; Ahp(2) = CCCCC[C@H](N)C(=O)O; Carboxymethyl = O=C(O)C*; Orn = NCCC[C@H](N)C(=O)O; Dab = NCC[C@H](N)C(=O)O; Nva = CCC[C@H](N)C(=O)O; Dap = NC[C@H](N)C(=O)O; Propargyl = C#CC*
# Target: T1, human PD-1 / PD-L1-Ig binding on Jurkat cell line over-expressing human PD-1 (Jurkat-PD-1) (Homo sapiens, UniProt Q15116)
# T1 construct: expressed in transfected cells; host or cells: Jurkat
# Test: Jurkat-PD-1 Cell Binding High-Content Screening Assay (CBA)
# Format: cell-based
# Conditions: Jurkat-PD-1 cells, PE-labeled PD-L1-Ig 20 nM final; read-out: Jurkat HPD1_PDL1 IC50
# How it was run: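 Cell-bound PE-labeled PD-L1-Ig (20 nM final, 1 h) measured by high-content imaging after fixation and Hoechst 33342 counterstain. Compound was applied first for 2 h at 37° C. to Jurkat cells over-expressing human PD-1 in DMEM with 10% FCS.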
# T1 sequence (Q15116 25-288): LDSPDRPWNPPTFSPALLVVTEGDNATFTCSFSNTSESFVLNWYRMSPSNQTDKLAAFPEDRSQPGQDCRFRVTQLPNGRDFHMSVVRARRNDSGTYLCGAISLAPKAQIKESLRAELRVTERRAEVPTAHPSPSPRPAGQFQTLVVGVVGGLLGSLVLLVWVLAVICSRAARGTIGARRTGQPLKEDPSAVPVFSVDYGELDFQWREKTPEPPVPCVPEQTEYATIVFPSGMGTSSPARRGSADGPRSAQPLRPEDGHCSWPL
row,IC50 [nM],SMILES
1,6.8,Cc1cccc(C[C@@H]2NC(=O)[C@H](CC(=O)O)NC(=O)[C@H](Cc3ccc(OCC(=O)O)cc3)NC(=O)[C@H](Cc3ccc(C(F)(F)F)cc3)NC(=O)CSC[C@@H](C(=O)N[C@@H](CCN)C(N)=O)NC(=O)[C@H](CCC(=O)O)NC(=O)[C@H](C(C)(C)O)NC(=O)[C@H](CC3CCCCC3)NC(=O)[C@H](CCN)NC(=O)[C@@H](CC(C)C)NC(=O)[C@H](CCCN)NC(=O)[C@H](Cc3ccc(OCC(=O)O)cc3)NC(=O)[C@H](Cc3ccc(-c4ccccc4)cc3)NC(=O)[C@H](Cc3ccc(OCC(=O)O)cc3)NC2=O)c1 [Compound 2691] ({CH2CO}-[Phe(4-CF3)]Y(Carboxymethyl)D[Phe(3-Me)]Y(Carboxymethyl)[Bip]Y(Carboxymethyl)[Orn][dL][Dab][Cha][Val(3-OH)]EC[Dab]-NH2; thioether N-14)
2,8.8,CC(C)C[C@@H]1NC(=O)[C@H](Cc2c[nH]c3ccccc23)NC(=O)[C@H](CC(=O)O)NC(=O)[C@H](Cc2ccc(O)cc2)NC(=O)[C@H](Cc2ccccc2)NC(=O)CSC[C@@H](C(=O)N[C@@H](C)C(N)=O)NC(=O)[C@H](CO)NC(=O)[C@H](C(C)C)NC(=O)[C@H](CC(C)C)NC(=O)[C@H](CCN)NC(=O)[C@@H](CC(C)C)NC(=O)[C@H](CCN)NC(=O)[C@H](C(C)C)NC(=O)[C@H](Cc2ccc(-c3ccccc3)cc2)NC1=O [Compound 1061] ({CH2CO}-FYDWL[Bip]V[Dab][dL][Dab]LVSCA-NH2; thioether N-14)
3,26.4,CCCCC[C@@H]1NC(=O)[C@H](CCN)NC(=O)[C@@H](CC(C)C)NC(=O)[C@H](CCCN)NC(=O)[C@H](CCCNC(N)=O)NC(=O)[C@H](Cc2ccc(-c3ccccc3)cc2)NC(=O)[C@H](C(C)C)NC(=O)[C@H](Cc2c[nH]c3ccccc23)NC(=O)[C@H](CC(=O)O)NC(=O)[C@H](Cc2ccc(OCC(=O)O)cc2)NC(=O)[C@H](CN)NC(=O)CSC[C@@H](C(=O)N[C@@H](C)C(N)=O)NC(=O)[C@H]([C@@H](C)O)NC(=O)[C@H](C(C)C)NC1=O [Compound 1347] ({CH2CO}-[Dap]Y(Carboxymethyl)DWV[Bip][Cit][Orn][dL][Dab][Ahp(2)]VTCA-NH2; thioether N-14)
4,33,CC(C)C[C@@H]1NC(=O)[C@H](Cc2c[nH]c3ccccc23)NC(=O)[C@H](CC(=O)O)NC(=O)[C@H](Cc2ccc(CN)cc2)NC(=O)[C@H](Cc2ccccc2)NC(=O)CSC[C@@H](C(=O)N[C@@H](C)C(N)=O)NC(=O)[C@H](CO)NC(=O)[C@H](C(C)C)NC(=O)[C@H](CC2CCCCC2)NC(=O)[C@H](CN)NC(=O)[C@@H](CC(C)C)NC(=O)[C@H](CCCN)NC(=O)[C@H](CCCNC(N)=O)NC(=O)[C@H](Cc2ccc(-c3ccccc3)cc2)NC1=O [Compound 2503] ({CH2CO}-F[Phe(4-CH2NH2)]DWL[Bip][Cit][Orn][dL][Dap][Cha]VSCA-NH2; thioether N-14)
5,127,CC(C)C[C@@H]1NC(=O)[C@H](Cc2c[nH]c3ccccc23)NC(=O)[C@H](CC(=O)O)NC(=O)[C@H](Cc2ccc(O)cc2)NC(=O)[C@H](Cc2ccccc2)NC(=O)CSC[C@@H](C(=O)N[C@@H](C)C(N)=O)NC(=O)[C@H]([C@@H](C)O)NC(=O)[C@H](C(C)C)NC(=O)[C@H](CC(C)C)NC(=O)[C@H](CC(N)=O)NC(=O)[C@@H](C)NC(=O)[C@H](CCN)NC(=O)[C@H](C(C)C)NC(=O)[C@H](Cc2ccc(-c3ccccc3)cc2)NC1=O [Compound 1101] ({CH2CO}-FYDWL[Bip]V[Dab][dA]NLVTCA-NH2; thioether N-14)
6,469,CC(C)C[C@H]1NC(=O)[C@H](CCCN)NC(=O)[C@H](CCC(=O)O)NC(=O)[C@H](Cc2ccc(-c3ccccc3)cc2)NC(=O)[C@H](C(C)C)NC(=O)[C@H](Cc2ccc3ncccc3c2)NC(=O)[C@H](CC(=O)O)NC(=O)[C@H](Cc2ccc(OCC(=O)O)cc2)NC(=O)[C@H](CN)NC(=O)CSC[C@@H](C(=O)N[C@@H](C)C(N)=O)NC(=O)[C@H]([C@@H](C)O)NC(=O)[C@H](C(C)C)NC(=O)[C@H](CC2CCCCC2)NC(=O)[C@H](CCN)NC1=O [Compound 2145] ({CH2CO}-[Dap]Y(Carboxymethyl)D[X5]V[Bip]E[Orn][dL][Dab][Cha]VTCA-NH2; thioether N-14)
7,37.9,CC(C)C[C@@H]1NC(=O)[C@H](CCN)NC(=O)[C@@H](CC(C)C)NC(=O)[C@H](CCN)NC(=O)[C@H](CCCNC(N)=O)NC(=O)[C@H](Cc2ccc(-c3ccccc3)cc2)NC(=O)[C@H](C(C)C)NC(=O)[C@H](Cc2c[nH]c3ccccc23)NC(=O)[C@H](CC(=O)O)NC(=O)[C@H](Cc2ccc(O)cc2)NC(=O)[C@H](CC(N)=O)NC(=O)CSC[C@@H](C(=O)N[C@@H](C)C(N)=O)NC(=O)[C@H](CO)NC(=O)[C@H](C(C)C)NC1=O [Compound 1111] ({CH2CO}-NYDWV[Bip][Cit][Dab][dL][Dab]LVSCA-NH2; thioether N-14)
8,17.2,COC[C@@H]1NC(=O)[C@H](Cc2c[nH]c3ccccc23)NC(=O)[C@H](CC(=O)O)NC(=O)[C@H](Cc2ccc(OCC(=O)O)cc2)NC(=O)[C@H](CN)NC(=O)CSC[C@@H](C(=O)N[C@@H](C)C(N)=O)NC(=O)[C@H]([C@@H](C)O)NC(=O)[C@H](C(C)C)NC(=O)[C@H](CC2CCCCC2)NC(=O)[C@H](CCN)NC(=O)[C@@H](CC(C)C)NC(=O)[C@H](CCCN)NC(=O)[C@H](CCCNC(N)=O)NC(=O)[C@H](Cc2ccc(-c3ccccc3)cc2)NC1=O [Compound 1002] ({CH2CO}-[Dap]Y(Carboxymethyl)DWS(Me)[Bip][Cit][Orn][dL][Dab][Cha]VTCA-NH2; thioether N-14)
9,129,CC(C)C[C@@H]1NC(=O)[C@H](CCCNC(=N)N)NC(=O)[C@@H](CC(C)C)NC(=O)[C@@H](CCCCN)NC(=O)[C@H](CCCNC(=N)N)NC(=O)[C@H](Cc2ccc(-c3ccccc3)cc2)NC(=O)[C@H](C(C)C)NC(=O)[C@H](Cc2c[nH]c3ccccc23)NC(=O)[C@H](CC(=O)O)NC(=O)[C@H](Cc2ccc(O)cc2)NC(=O)[C@H](CC(N)=O)NC(=O)CSC[C@@H](C(=O)N[C@@H](C)C(N)=O)NC(=O)[C@H]([C@@H](C)O)NC(=O)[C@H](C(C)C)NC1=O [Compound 1013] ({CH2CO}-NYDWV[Bip]R[dK][dL]RLVTCA-NH2; thioether N-14)
10,13.1,CCC(C)[C@@H]1NC(=O)[C@H](Cc2ccc(-c3ccccc3)cc2)NC(=O)[C@H](CC(C)C)NC(=O)[C@H](Cc2c[nH]c3ccccc23)NC(=O)[C@H](CC(=O)O)NC(=O)[C@H](Cc2ccc(OCC(=O)O)cc2)NC(=O)[C@H](C(C)O)NC(=O)CSC[C@@H](C(=O)N[C@@H](CC(N)=O)C(=O)O)NC(=O)[C@H](CO)NC(=O)[C@H](C(C)C)NC(=O)[C@H](CC(C)C)NC(=O)[C@H](CCN)NC(=O)[C@@H](CC(C)C)NC(=O)[C@H](CCCN)NC1=O (stereo partly drawn) [Compound 2577] ({CH2CO}-[Thr(3ξ)]Y(Carboxymethyl)DWL[Bip][Ile(3ξ)][Orn][dL][Dab]LVSCN-OH; thioether N-14)
11,19.4,CC(C)C[C@H]1NC(=O)[C@H](CCCN)NC(=O)[C@H](CCC(=O)O)NC(=O)[C@H](Cc2ccc(-c3ccccc3)cc2)NC(=O)[C@H](C(C)C)NC(=O)[C@H](Cc2c[nH]c3ccccc23)NC(=O)[C@H](CC(=O)O)NC(=O)[C@H](Cc2ccc(N)cc2)NC(=O)[C@H](Cc2ccc(OCC(=O)O)cc2)NC(=O)CSC[C@@H](C(=O)N[C@@H](C)C(N)=O)NC(=O)[C@H]([C@@H](C)O)NC(=O)[C@H](C(C)C)NC(=O)[C@H](CC2CCCCC2)NC(=O)[C@H](CCN)NC1=O [Compound 2183]
12,4.8,C#CCOc1ccc(C[C@@H]2NC(=O)[C@H](Cc3ccc(-c4ccccc4)cc3)NC(=O)[C@H](Cc3ccc(C(=O)O)cc3)NC(=O)[C@H](Cc3cccc(C)c3)NC(=O)[C@H](CC(=O)O)NC(=O)[C@H](Cc3ccc(C(=O)O)cc3)NC(=O)[C@H](CCC)NC(=O)CSC[C@@H](C(=O)N[C@@H](CCN)C(N)=O)NC(=O)[C@H](CCC(=O)O)NC(=O)[C@H](C(C)C)NC(=O)[C@H](CC3CCCCC3)NC(=O)[C@H](CCN)NC(=O)[C@@H](CC(C)C)NC(=O)[C@H](CCCN)NC2=O)cc1 [Compound 1831] ({CH2CO}-[Nva][Phe(4-COOH)]D[Phe(3-Me)][Phe(4-COOH)][Bip]Y(Propargyl)[Orn][dL][Dab][Cha]VEC[Dab]-NH2; thioether N-14)
13,163,CC(C)C[C@H]1NC(=O)[C@H](CCCN)NC(=O)[C@H](CCC(=O)O)NC(=O)[C@H](Cc2ccc(-c3ccccc3)cc2)NC(=O)[C@H](C(C)C)NC(=O)[C@H](Cc2c[nH]c3ccccc23)NC(=O)[C@H](CC(=O)O)NC(=O)[C@H](Cc2ccc(OCC(=O)O)cc2)NC(=O)[C@H](CN)NC(=O)CSC[C@@H](C(=O)N[C@@H](C)C(N)=O)NC(=O)[C@H]([C@@H](C)O)NC(=O)[C@H](C(C)C)NC(=O)[C@H](Cc2cccc(CN)c2)NC(=O)[C@H](CCN)NC1=O [Compound 1508] ({CH2CO}-[Dap]Y(Carboxymethyl)DWV[Bip]E[Orn][dL][Dab][Phe(3-CH2NH2)]VTCA-NH2; thioether N-14)
14,23.1,CC[C@H](C)[C@@H]1NC(=O)[C@H](Cc2ccc(-c3ccccc3)cc2)NC(=O)[C@H](C(C)C)NC(=O)[C@H](Cc2c[nH]c3ccccc23)NC(=O)[C@H](CC(=O)O)NC(=O)[C@H](Cc2ccc(O)cc2)NC(=O)[C@H](CC(N)=O)NC(=O)CSC[C@@H](C(=O)N[C@@H](C)C(N)=O)NC(=O)[C@H](CO)NC(=O)[C@H](C(C)C)NC(=O)[C@H](CC(C)C)NC(=O)[C@H](CCN)NC(=O)[C@@H](CC(C)C)NC(=O)[C@H](CCCN)NC1=O [Compound 1118] ({CH2CO}-NYDWV[Bip]I[Orn][dL][Dab]LVSCA-NH2; thioether N-14)
15,48.7,CC(C)C[C@H]1NC(=O)[C@H](CCCN)NC(=O)[C@H](CCC(=O)O)NC(=O)[C@H](Cc2ccc(-c3ccccc3)cc2)NC(=O)[C@H](C(C)C)NC(=O)[C@H](Cc2c[nH]c3ccccc23)NC(=O)[C@H](CC(=O)O)NC(=O)[C@H](Cc2ccc(OCC(=O)O)cc2)NC(=O)[C@H](Cc2ccc(OCC(=O)O)cc2)NC(=O)CSC[C@@H](C(=O)N[C@@H](C)C(N)=O)NC(=O)[C@H]([C@@H](C)O)NC(=O)[C@H](C(C)C)NC(=O)[C@H](Cc2ccccc2)NC(=O)[C@H](CCN)NC1=O [Compound 1668] ({CH2CO}-Y(Carboxymethyl)Y(Carboxymethyl)DWV[Bip]E[Orn][dL][Dab]FVTCA-NH2; thioether N-14)
